Experimental data taken from patent publication US9458202B2, “Peptidomimetic macrocycles with improved properties” (Aileron Therapeutics, Inc., priority 2008, dated 2016).
Where a SMILES comes first, the peptide text is derived from it. Bridges are numbered along the chain shown (N, C = ends). [ ]: non-standard residue; d: D form. The star is where a group is joined. S5 = C=CCCC[C@](C)(N)C(=O)O; Nle = CCCC[C@H](N)C(=O)O; Aib = CC(C)(N)C(=O)O; Propionyl = CCC(=O)*

Legend:
[1] = Figure 5
Source text: Table printed on a drawing sheet, Figure 5
The patent's description of the figure: FIG. 5 illustrates the PK profile in rat and monkey for a peptidomimetic macrocycle of the invention.
First reader's note: The first row combines the substance name (SP2) with the conditions dose, route and species in one cell.

[2] = Figure 2; set-up: AUCall: concentration or dose not given beside the values; settings: for C0 / half-life / MRT: Sprague-Dawley, rat, plasma, iv; for MRT: read-out: MRTinf_obs
Experimental: Table printed on a drawing sheet, Figure 2
Footnotes: 2 mg/mL iv bolus in Sprague-Dawley rats (10 mg/kg) / * 0.6 mg/mL iv bolus in Sprague-Dawley rats (3 mg/kg)
The patent's description of the figure: FIG. 2 lists the in vivo half-lives of peptidomimetic macrocycles of the invention. Half-lives were measured in Sprague Dawley rats after one intravenous bolus injection at 0.6 mg/mL or 2 mg/mL of each unlabeled peptidomimetic macrocycle at a 3 mg/kg or 10 mg/kg dose, respectively. Three animals were used per compound and concentrations were determined by mass-spectrometric analysis of blood levels (plasma).
First reader's note: An asterisk before the peptide name marks dosing at 3 mg/kg (0.6 mg/mL) instead of 10 mg/kg (2 mg/mL).

Row | Structure (SMILES) | AUC all [1] | Cmax [1] | MRTinf [1] | T ½ [1] | AUCall [2] | Cl_obs [2] | C0 [2] | half-life [2] | MRT [2]
1 | CC[C@H](C)[C@H](NC(C)=O)C(=O)N[C@@H](Cc1c[nH]c2ccccc12)C(=O)N[C@H](C(=O)N[C@@H](C)C(=O)N[C@@H](CCC(N)=O)C(=O)N[C@@H](CCC(=O)O)C(=O)N[C@@H](CC(C)C)C(=O)N[C@@H](CCCNC(=N)N)C(=O)N[C@@]1(C)CCCC=CCCC[C@@](C)(C(=O)N[C@@H](Cc2ccccc2)C(=O)N[C@@H](CC(N)=O)C(=O)N[C@@H](C)C(=O)N[C@@H](Cc2ccc(O)cc2)C(=O)N[C@@H](Cc2ccc(O)cc2)C(=O)N[C@@H](C)C(=O)N[C@@H](CCCNC(=N)N)C(=O)N[C@@H](CCCNC(=N)N)C(N)=O)NC(=O)[C@H](CC(=O)O)NC(=O)CNC(=O)[C@H]([C@@H](C)CC)NC1=O)[C@@H](C)CC (single isomer, unassigned) [SP2 1 mg/kg IV monkey] | 27.275 µg·h/mL | 19.049 µg/mL | 1.8 h | 2.2 h | – | – | – | – | –
2 | CC[C@H](C)[C@H](NC(C)=O)C(=O)N[C@@H](Cc1c[nH]c2ccccc12)C(=O)N[C@H](C(=O)N[C@@H](C)C(=O)N[C@@H](CCC(N)=O)C(=O)N[C@@H](CCC(=O)O)C(=O)N[C@@H](CC(C)C)C(=O)N[C@@H](CCCNC(=N)N)C(=O)N[C@@]1(C)CCCC=CCCC[C@@](C)(C(=O)N[C@@H](Cc2ccccc2)C(=O)N[C@@H](CC(N)=O)C(=O)N[C@@H](C)C(=O)N[C@@H](Cc2ccc(O)cc2)C(=O)N[C@@H](Cc2ccc(O)cc2)C(=O)N[C@@H](C)C(=O)N[C@@H](CCCNC(=N)N)C(=O)N[C@@H](CCCNC(=N)N)C(N)=O)NC(=O)[C@H](CC(=O)O)NC(=O)CNC(=O)[C@H]([C@@H](C)CC)NC1=O)[C@@H](C)CC (single isomer, unassigned) [SP2 3 mg/kg IV monkey] | 110.669 µg·h/mL | 51.54 µg/mL | 1.9 h | 2 h | – | – | – | – | –
3 | CC[C@H](C)[C@H](NC(C)=O)C(=O)N[C@@H](Cc1c[nH]c2ccccc12)C(=O)N[C@H](C(=O)N[C@@H](C)C(=O)N[C@@H](CCC(N)=O)C(=O)N[C@@H](CCC(=O)O)C(=O)N[C@@H](CC(C)C)C(=O)N[C@@H](CCCNC(=N)N)C(=O)N[C@@]1(C)CCCC=CCCC[C@@](C)(C(=O)N[C@@H](Cc2ccccc2)C(=O)N[C@@H](CC(N)=O)C(=O)N[C@@H](C)C(=O)N[C@@H](Cc2ccc(O)cc2)C(=O)N[C@@H](Cc2ccc(O)cc2)C(=O)N[C@@H](C)C(=O)N[C@@H](CCCNC(=N)N)C(=O)N[C@@H](CCCNC(=N)N)C(N)=O)NC(=O)[C@H](CC(=O)O)NC(=O)CNC(=O)[C@H]([C@@H](C)CC)NC1=O)[C@@H](C)CC (single isomer, unassigned) [SP2 10 mg/kg IV monkey] | 427.932 µg·h/mL | 180.01 µg/mL | 2.2 h | 1.9 h | – | – | – | – | –
4 | CC[C@H](C)[C@H](NC(C)=O)C(=O)N[C@@H](Cc1c[nH]c2ccccc12)C(=O)N[C@H](C(=O)N[C@@H](C)C(=O)N[C@@H](CCC(N)=O)C(=O)N[C@@H](CCC(=O)O)C(=O)N[C@@H](CC(C)C)C(=O)N[C@@H](CCCNC(=N)N)C(=O)N[C@@]1(C)CCCC=CCCC[C@@](C)(C(=O)N[C@@H](Cc2ccccc2)C(=O)N[C@@H](CC(N)=O)C(=O)N[C@@H](C)C(=O)N[C@@H](Cc2ccc(O)cc2)C(=O)N[C@@H](Cc2ccc(O)cc2)C(=O)N[C@@H](C)C(=O)N[C@@H](CCCNC(=N)N)C(=O)N[C@@H](CCCNC(=N)N)C(N)=O)NC(=O)[C@H](CC(=O)O)NC(=O)CNC(=O)[C@H]([C@@H](C)CC)NC1=O)[C@@H](C)CC (single isomer, unassigned) [SP2 10 mg/kg IV rat] | 170.685 µg·h/mL | 70.325 µg/mL | 3.1 h | 5.7 h | – | – | – | – | –
5 | CC[C@H](C)[C@H](NC(C)=O)C(=O)N[C@@H](Cc1c[nH]c2ccccc12)C(=O)N[C@H](C(=O)N[C@@H](C)C(=O)N[C@@H](CCC(N)=O)C(=O)N[C@@H](CCC(=O)O)C(=O)N[C@@H](CC(C)C)C(=O)N[C@@H](CCCNC(=N)N)C(=O)N[C@@]1(C)CCCC=CCCC[C@@](C)(C(=O)N[C@@H](Cc2ccccc2)C(=O)N[C@@H](CC(N)=O)C(=O)N[C@@H](C)C(=O)N[C@@H](Cc2ccc(O)cc2)C(=O)N[C@@H](Cc2ccc(O)cc2)C(=O)N[C@@H](C)C(=O)N[C@@H](CCCNC(=N)N)C(=O)N[C@@H](CCCNC(=N)N)C(N)=O)NC(=O)[C@H](CC(=O)O)NC(=O)CNC(=O)[C@H]([C@@H](C)CC)NC1=O)[C@@H](C)CC (single isomer, unassigned) [SP2] | – | – | – | – | 170.685 µg·h/mL | 1.36 mL/min/kg | 70.3 µg/mL | 5.7 h | 3.1 h
6 | CCCC[C@H](NC(=O)[C@]1(C)CCCC=CCCC[C@](C)(NC(=O)[C@H](C)NC(=O)[C@H](CC(C)C)NC(=O)[C@]2(C)CCCC=CCCCCC(=O)N[C@@H]([C@@H](C)CC)C(=O)N[C@@H](C)C(=O)N[C@@H](CCCNC(=N)N)C(=O)N2)C(=O)N[C@@H](C(C)C)C(=O)NCC(=O)N[C@@H](CC(=O)O)C(=O)N1)C(=O)N[C@@H](CC(=O)O)C(=O)N[C@@H](CCCNC(=N)N)C(=O)N[C@@H](CO)C(=O)N[C@H](C(N)=O)[C@@H](C)CC [*SP12] | – | – | – | – | 69.035 µg·h/mL | 0.503 mL/min/kg | 6.4 µg/mL | 5.9 h | 9.2 h
7 | CC[C@H](C)[C@H](NC(C)=O)C(=O)N[C@@H](Cc1c[nH]c2ccccc12)C(=O)N[C@H](C(=O)N[C@@H](C)C(=O)N[C@@H](CCC(N)=O)C(=O)N[C@@H](CCC(N)=O)C(=O)N[C@@H](CC(C)C)C(=O)N[C@@H](CCCNC(=N)N)C(=O)N[C@@]1(C)CCCC=CCCC[C@@](C)(C(=O)N[C@@H](Cc2ccccc2)C(=O)N[C@@H](CC(N)=O)C(=O)N[C@@H](C)C(=O)N[C@@H](Cc2ccc(O)cc2)C(=O)N[C@@H](Cc2ccc(O)cc2)C(=O)N[C@@H](C)C(=O)N[C@@H](CCCNC(=N)N)C(=O)N[C@@H](CCCNC(=N)N)C(N)=O)NC(=O)[C@H](CC(=O)O)NC(=O)CNC(=O)[C@H]([C@@H](C)CC)NC1=O)[C@@H](C)CC [SP3] | – | – | – | – | 156.183 µg·h/mL | 1.1 mL/min/kg | 186 µg/mL | 11.1 h | 4.3 h
8 | CCCC[C@H](NC(=O)[C@]1(C)CCCC=CCCC[C@](C)(NC(=O)[C@H](C)NC(=O)[C@H](CC(C)C)NC(=O)[C@H](Cc2c[nH]cn2)NC(=O)[C@H](CCCNC(=N)N)NC(=O)[C@H](C)NC(=O)[C@@H](NC(=O)[C@H](CC(N)=O)NC(=O)[C@H](CCCNC(=N)N)NC(=O)CC)[C@@H](C)CC)C(=O)N[C@@H](C(C)C)C(=O)NC(C)(C)C(=O)N[C@@H](CC(=O)O)C(=O)N1)C(=O)N[C@@H](CC(=O)O)C(=O)N[C@@H](CCCNC(=N)N)C(=O)N[C@@H](CO)C(=O)N[C@H](C(N)=O)[C@@H](C)CC [SP5] (Propionyl-RNIARHLA[S5]V[Aib]D[S5][Nle]DRSI-NH2; staple 9-13) | – | – | – | – | 127.629 µg·h/mL | 1.52 mL/min/kg | 271 µg/mL | 2.4 h | 0.6 h
9 | CC[C@H](C)[C@H](NC(=O)[C@H](CO)NC(=O)[C@H](CCCNC(=N)N)NC(=O)[C@H](C)NC(=O)[C@H](C)NC(=O)[C@]1(C)CCCC=CCCC[C@](C)(NC(=O)[C@H](C)NC(=O)[C@H](CC(C)C)NC(=O)[C@H](Cc2c[nH]cn2)NC(=O)[C@H](CCCNC(=N)N)NC(=O)[C@H](C)NC(=O)[C@@H](NC(=O)[C@H](CC(N)=O)NC(=O)[C@H](CCCNC(=N)N)NC(=O)[C@@H](NC(=O)[C@@H](NC(=O)[C@H](CC(=O)O)NC(C)=O)[C@@H](C)CC)[C@@H](C)CC)[C@@H](C)CC)C(=O)N[C@@H](C(C)C)C(=O)NC(C)(C)C(=O)N[C@@H](CC(=O)O)C(=O)N1)C(N)=O [SP7] (Ac-DIIRNIARHLA[S5]V[Aib]D[S5]AARSI-NH2; staple 12-16) | – | – | – | – | 402.899 µg·h/mL | 0.398 mL/min/kg | 158 µg/mL | 3.9 h | 3.1 h
10 | CCC(=O)N[C@@H](CCCNC(=N)N)C(=O)N[C@@H](CC(N)=O)C(=O)N[C@H](C(=O)N[C@@H](C)C(=O)N[C@@H](CCCNC(=N)N)C(=O)N[C@@H](Cc1c[nH]cn1)C(=O)N[C@@H](CC(C)C)C(=O)N[C@@H](C)C(=O)N[C@@]1(C)CCCC=CCCC[C@@](C)(C(=O)N[C@@H](Cc2ccccc2)C(=O)N[C@@H](C)C(=O)N[C@@H](CCCNC(=N)N)C(=O)N[C@@H](CO)C(=O)N[C@H](C(N)=O)[C@@H](C)CC)NC(=O)[C@H](CC(=O)O)NC(=O)C(C)(C)NC(=O)[C@H](C(C)C)NC1=O)[C@@H](C)CC [SP8] (Propionyl-RNIARHLA[S5]V[Aib]D[S5]FARSI-NH2; staple 9-13) | – | – | – | – | 73.751 µg·h/mL | 1.997 mL/min/kg | 148 µg/mL | 19.9 h | 2.3 h
11 | CCCC[C@H](NC(=O)[C@]1(C)CCCC=CCCC[C@](C)(NC(=O)[C@H](C)NC(=O)[C@H](CC(C)C)NC(=O)[C@H](Cc2c[nH]cn2)NC(=O)[C@H](CCCNC(=N)N)NC(=O)[C@H](C)NC(=O)[C@@H](NC(=O)[C@H](CC(N)=O)NC(=O)[C@H](CCCNC(=N)N)NC(=O)CC)[C@@H](C)CC)C(=O)N[C@@H](C(C)C)C(=O)NCC(=O)N[C@@H](CC(=O)O)C(=O)N1)C(=O)NC(C)(C)C(=O)N[C@@H](CCCNC(=N)N)C(=O)N[C@@H](CO)C(=O)N[C@H](C(N)=O)[C@@H](C)CC [SP10] (Propionyl-RNIARHLA[S5]VGD[S5][Nle][Aib]RSI-NH2; staple 9-13) | – | – | – | – | 35.591 µg·h/mL | 3.605 mL/min/kg | 51.7 µg/mL | 21.8 h | 3 h
